Earlier results on 2 compounds are cited in patent US6673373B2, “Antifungal formulation and the methods for manufacturing and using the same” (Carlsbad Technology Inc., priority 2001, dated 2004).

For series [1], the system named is plasma proteins.
Test in series [2]: not given
This is another data set of the same source.

Test in series [3]: not given
This is another data set of the same source.

Take `CCC(C)n1ncn(-c2ccc(N3CCN(c4ccc(OC[C@H]5CO[C@](Cn6cncn6)(c6ccc(Cl)cc6Cl)O5)cc4)CC3)cc2)c1=O` (mixture of isomers) [itraconazole, (±)-cis-4-[4-[4-[4-[[2-(2,4-dichlorophenyl)-2-(1H-1,2,4-triazol-1-ylmethyl)-1,3-dioxolan-4-yl]methoxy]phenyl]-1-piperazinyl]phenyl]-2,4-dihydro-2-(1-methylpropyl)-3H-1,2,4-triazol-3-one]: the solubility in water entry is on record as “less than 1 μg/ml”. In series [1], the “binding rate with plasma proteins” value is 99.8%. For the same compound, the “time to reach peak concentration in plasma” value in series [2] (after taken by the patients) is 3 to 4 h. In addition, in series [2] (in vivo), the “concentration in blood as % of that in plasma” value is given as “about 60%”, the “itraconazole in its original form excreted in feces” value is recorded as 3-18%, the “itraconazole in its original form secreted in urine” value is reported as at most 0.03% and the plasma half life was 24 to 36 h. Further, the “itraconazole metabolites secreted in urine” value in series [2] (within a week after the uptake of the drug) is “About 35%”.

Consider hydroxy-itraconazole, for which, in series [3], the “antifungal activity in vitro” value was “demonstrated in vitro to have antifungal activity”.
